According to patent US7572949B2, “SKN-1 and GSK-3 genes and proteins” (Immune Disease Institute, Inc., priority 2003, dated 2009):

Experiments:
[1] = tested on: GCS-1::GFP expression in the intestine; assay: Induction of GCS-1::GFP expression in the intestine by oxidative stress (transgenic worms, fluorescence microscopy); format: in vivo, C. elegans; conditions: for percentage of animals with high intestinal GCS-1::GFP expression / percentage of animals with low intestinal GCS-1::GFP expression / percentage of animals with medium intestinal GCS-1::GFP expression: 1 mM paraquat in the agar, 20° C., 3 days, mixed L2-young adult worms
Method: Transgenic strains were generated by injecting DNA into the gonad of young adult animals as described in Mello et al. (EMBO Journal 10: 3959-3970 (1991)). gcs-1::gfp transgene constructs (FIG. 3A) were injected at 50 ng/μl along with the rol-6 marker (pRF4) at 100 ng/μl. Between three and six independent extrachromosomal lines were generated and analyzed for each gcs-1::gfp construct. To investigate GCS-1::GFP expression in the skn-1(zu67) background, rol-6-marked gcs-1::gfp hermaphrodites were mated with N2 males, then their transgenic progeny were crossed with skn-1(zu67)/DnT1 hermaphrodites, which have an unc phenotype. After transgenic males were successively crossed twice with skn-1(zu67)/DnT1 hermaphrodites, unc; rol F3 hermaphrodite progeny were selected. From this population, skn-1(zu67)/DnT1; gcs-1::gfp animals were identified on the basis of their non-unc; rol progeny laying dead eggs. Two different gcs-1:gfp lines were thereby crossed into the skn-1(zu67) background and examined for GFP expression. DIC and fluorescence images were acquired with a Zeiss AxioSKOP2 microscope and AxioCam cooled color digital camera.
To investigate expression of gcs-1::gfp and mutant transgenes, worms were exposed to oxidative stress under the following conditions. For heat shock, worms cultured at 20° C. were transferred onto prewarmed seeded plates and incubated at 29° C. for 20 hours, then examined by fluorescence microscopy for GFP expression. gcs-1::gfp induction was also observed in an alternative heat treatment protocol, during which worms cultured at 20° C. were transferred onto prewarmed plates and incubated at 34° C. for 2 to 4 hours, then returned to 20° C. and examined for GFP expression hourly during a four hour recovery period. In the experiments described in Table 2, young adults were transferred to plates that contained 1 mM paraquat in the agar and maintained at 20° C. for 3 days prior to analysis. In an alternative induction protocol, worms that carried gcs-1::gfp or the mutant transgenes shown in FIG. 3A were incubated in M9 either with or without 100 mM paraquat for 30 minutes, then allowed to recover on plates for four hours.

SKN-1::GFP = assay: Accumulation of SKN-1::GFP in intestinal nuclei in response to oxidative stress (skn-1::gfp transgenic worms); format: in vivo, C. elegans
Method: To create transgenic skn-1::gfp strains, 2.5, 10, or 50 ng/μl of transgene DNA (FIG. 5A) was injected into N2 animals at along with 100 ng/μl of pRF4 to generate extrachromosomal transgenic lines. Two different extrachromosomal arrays, Ex001 and Ex007, generated with 2.5 and 10 ng/μl of SKN-1::GFP, respectively, were integrated into the chromosome by UV irradiation (400 J/m2) to produce the insertion strains Is001 and Is007, respectively. To rescue the embryonic lethality of a skn-1 mutation, SKN-1::GFP was injected into skn-1(zu67)/DnT1 animals at 2.5 ng/μl with 100 ng/μl of the pRF4 marker. […] To analyze expression and localization of SKN-1::GFP in response to oxidative stress, skn-1::gfp transgenic worms were treated as described above for the gcs-1::gfp expression studies. […] These worms were scored for presence of SKN-1::GFP in intestinal nuclei 5 minutes later. […] To discriminate intestinal autofluorescence from SKN-1::GPP epifluorescence, a triple band emission filter set (Chroma 61000) was used in conjunction with a narrow band excitation filter (484/14 nm). This combination allowed autofluorescence to be detected as yellow/orange fluorescence deriving from a combined green and red signal, while GFP remained green. Worms that carried skn-1::gfp, gcs-1::gfp and gcs-1::gfp mutant transgenes were incubated with 50 μg/ml DiI (Molecular Probes) in M9 for 3 hours at 20° C., then transferred to fresh plates for 1 hour to destain, and examined under the fluorescence microscope. The ASI chemosensory neurons were identified by according to their intensity of DiI labeling and location relative to other DiI-labeled cells.

[2] = tested on: C. elegans pathway mediated by SKN-1; conditions: in vivo
[3] = 2 mM, immobilization for photography, during the times examined (data not shown)
[4] = paraquat, treated as for the gcs-1::gfp studies, mixed-stage L2-young adult worms

For `c1ccc([C@H]2CN3CCSC3=N2)cc1` [Levamisole], the “GCS-1::GFP induction by immobilization agent” value [1, 3] was “did not stimulate” and the “SKN-1::GFP relocalization by immobilization agent” value (SKN-1::GFP; [3]) was “did not stimulate”.
In the case of `C[n+]1ccc(-c2cc[n+](C)cc2)cc1` [Paraquat, paraquat (methyl viologen)], the “intestinal gcs-1::gfp expression, alternative induction protocol” value ([1]; 100 mM paraquat in M9 for 30 minutes, four hours recovery on plates) is reported as “induction of intestinal gcs-1::gfp expression”, the “percentage of animals with high intestinal GCS-1::GFP expression” value ([1]; gcs-1::gfp transgene) is reported as 18.4% and the “percentage of animals with low intestinal GCS-1::GFP expression” value ([1]; gcs-1::gfp transgene) is reported as 14.5%. The “percentage of animals with medium intestinal GCS-1::GFP expression” value ([1]; gcs-1::gfp transgene) was 67.1%, the “percentage of animals with high intestinal GCS-1::GFP expression” value ([1]; gcsΔ2::gfp transgene) was 13.1% and the “percentage of animals with low intestinal GCS-1::GFP expression” value ([1]; gcsΔ2::gfp transgene) was 21.3%. For the same compound, the “percentage of animals with medium intestinal GCS-1::GFP expression” value ([1]; gcsΔ2::gfp transgene) was 65.6%, the “GCS-1::GFP in the intestine and ASI neurons of skn-1 homozygotes” value ([1]; skn-1 homozygotes, after paraquat treatment (data not shown)) was “absence of GCS-1::GFP” and the “SKN-1::GFP in the ASI neurons after exposure” value (SKN-1::GFP; ASI neurons, after exposure to paraquat) was “neither the location nor intensity of SKN-1::GFP was detectably altered”. For the same compound, the “SKN-1::GFP in intestinal cell nuclei after exposure” value (SKN-1::GFP; in a high percentage of animals, particularly anteriorly and posteriorly, after exposure to paraquat) was “elevated levels of SKN-1::GFP”, the “percentage of animals with high SKN-1::GFP in intestinal nuclei” value (SKN-1::GFP; [4]) was 3.1% and the “percentage of animals with low SKN-1::GFP in intestinal nuclei” value (SKN-1::GFP; [4]) was 53.1%. For the same compound, the “percentage of animals with medium SKN-1::GFP in intestinal nuclei” value (SKN-1::GFP; [4]) was 43.8%.
`[N-]=[N+]=[N-]` [Sodium Azide, sodium azide] was tested, and the “percentage of animals with high SKN-1::GFP in intestinal nuclei” value (SKN-1::GFP; in vivo) was 55.0%, the “percentage of animals with low SKN-1::GFP in intestinal nuclei” value (SKN-1::GFP; in vivo) was 0.8% and the “percentage of animals with medium SKN-1::GFP in intestinal nuclei” value (SKN-1::GFP; in vivo) was 44.2%.
`C[S+]([O-])CCCCN=C=S` (stereo not shown) [sulforaphane] was tested, and the “response of the SKN-1-mediated pathway” value [2] was “responds”.
